# Data: US9445987B2, “Ceramide production enhancer and moisturizer” (Kao Corporation, priority 2009, dated 2016)
# Test system: Normal human epidermal keratinocytes (NHEK(F))
# Test: Verification of ceramide production enhancing effect (Test Example 2 and Reference Example)
# Format: cell-based
# Procedure: Normal human epidermal keratinocytes (trade name: NHEK(F), manufactured by Kurabo Industries, Ltd.) were cultured under the conditions of 37° C. and 5% CO2, in a culture fluid (trade name: EpiLife-KG2, manufactured by Kurabo Industries, Ltd.) using a culture plate.
# Thereafter, the culture fluid was exchanged with EpiLife-KG2 from which growth factors such as epidermal growth factor had been eliminated, and a solution in which concentration of toosendanin was adjusted to 1 mM (574 ppm), or a control solution (50% ethanol) was added to the culture fluid in an amount of 0.01%.
# The cells were cultured for 3 days, and then the respective cells were collected from each well.
# An organic phase obtained by extracting lipids from the collected cells by the Blight and Dyer method, was transferred into a glass tube, and was dried to solid in nitrogen stream. Subsequently, the dried product was redissolved in chloroform and methanol, and this was used as a lipid sample.
# Further, 0.1N NaOH and a 1% aqueous SDS solution were added to the cells from which lipids had been extracted, and the mixture was heated at 60° C. for 2 hours to thereby solubilize proteins. The mixture was cooled to room temperature, and then 2N HCl was added for neutralization. The amount of proteins was quantified by the BCA method. […]
compound,measurement,setting,value
"CC(=O)O[C@@H]1C[C@H](O)[C@@]23CO[C@@H](O)[C@]1(C)[C@@H]2C[C@@H](O)[C@]1(C)[C@@H]3C(=O)[C@H](OC(C)=O)[C@@]2(C)[C@H](c3ccoc3)C[C@H]3O[C@]321 [Toosendanin, toosendanin]",Amount of ceramide production (Amount of ceramide production of control solution-added group = 1),"concentration for verification 57.4 ppb, cells cultured 3 days, TLC detection, control 50% ethanol",1.22
same,amount of ceramide production as compared to the control system (in words),"toosendanin-added system, 57.4 ppb, Table 2",an increase in the amount of ceramide production was recognized
